Data taken from BigSolDB 2.1.

NC(N)=C([N+](=O)[O-])[N+](=O)[O-]
solubility (mole fraction)
Conditions	293.15 K	303.15 K	313.15 K	323.15 K	333.15 K	343.15 K	353.15 K	363.15 K
in DMF	0.0918	0.102	0.11	0.119	0.129	0.137	0.148	0.162
in DMSO	0.183	0.191	0.199	0.207	0.217	0.229	0.242	0.254
in NMP	0.168	0.178	0.184	0.194	0.203	0.214	0.227	0.24
